Data: patent publication US20030199424A1, “Method of treatment and/or prophylaxis” (priority 2002, published 2003)
“Also recorded” adds a separate entry of the source. Read-outs that look alike come from different tables or passages of the source.

Columns and labels:
non-diabetic rats [1] = assay: Opioid-mediated antinociception (Von Frey, % MPE) in non-diabetic control rats; type: in vivo, rat; conditions: for ED50: Rattus norvegicus
Procedure: A second group of STZ-diabetic rats received vehicle (DMSO:water 10:90) by oral gavage (protocol-control rats). In the third group, weight-matched, naive, non-diabetic control rats (non-diabetic candesartan control rats) were also treated with candesartan for one wk prior to opioid antinociceptive testing to determine any intrinsic effects of candesartan on baseline pain scores and on opioid-mediated antinociception.
The statistical significance criterion was p<0.05.

non-diabetic rats [2] = conditions: control non-diabetic rats; previously determined by Saini (2000); cited from earlier work
STZ-diabetic rats [3] = assay: Opioid-mediated antinociception (Von Frey, % MPE) in STZ-diabetic rats; conditions: for ED50: Rattus norvegicus, read-out: mean (±SEM) ED50 of s.c. morphine; for timing of the peak antinociceptive effect: morphine 6.1 mg/kg s.c., control STZ-diabetic rats; for time to reach peak levels of antinociception: s.c. morphine, high-dose oral candesartan-treated STZ-diabetic rats
Procedure: In all cases, opioids were administered by a single s.c. injection (100 μL) into the dorsal region at the base of the neck whilst under light CO2/O2 (50:50%) anaesthesia using a 250 μL Hamilton syringe. […] By contrast, the opioid-naïve, weight-matched, non-diabetic candesartan control rats were given high-dose oral candesartan (2 mg/kg/day) for 7 days before opioid testing was initiated.
Immediately prior to administration of s.c. bolus doses of either opioid, baseline paw withdrawal thresholds were quantified using VFFs in an identical manner to the weekly baseline Von Frey monitoring described above. Following s.c. opioid administration, VFF assessments were performed at the following post-dosing times: 15, 30, 45, 60, 90, 120 and 180 min.
The VFF scores for individual rats were converted to the Percentage of the Maximum Possible Antinociceptive Effect (% MPE), according the following formula (Brady & Holtzmann, 1982): [formula]
(§1) The mean (±SEM) percentage maximum AUC (% Max AUC) was calculated according to the following formula: [formula]
ED50 estimation was facilitated by inclusion of the theoretical maximum and minimum % Max AUC values. The Mann-Whitney test was used to compare %MPE AUC ED50 values between treatment groups. The statistical significance criterion was p<0.05.

STZ-diabetic rats [4] = conditions: cited from earlier work
STZ-diabetic rats [5] = conditions: given to rats 4 wks after induction of diabetes with STZ (Maxfield et al., 1993); cited from earlier work
STZ-diabetic rats [6] = assay: Reversal protocol: AT1 antagonist from 12 wks post-STZ, morphine antinociception; conditions: oral candesartan 2 mg/kg/day for 4 wks commencing 12 wks post-STZ; tested at 16 wks post-STZ
Procedure: STZ-diabetic rats (n=18) were allocated to one of three experimental groups. Groups one and two received once-daily oral administration of antihypertensive doses of one of the AT1-antagonists, viz candesartan (2.0 mg/kg/day)or losartan (20 mg/kg/day), commencing at 12 weeks post-STZ administration (day 0). The third group (control STZ-diabetic rats) received no treatment.
as §1
The Mann-Whitney test was used to compare %MAX AUC values between treatment groups. The statistical significance criterion was p<0.05.

STZ-diabetic rats [7] = assay: Von Frey assessment of tactile allodynia (paw withdrawal threshold); type: in vivo, rat
Procedure: Candesartan treatment was initiated after STZ administration (day 0) but prior to the onset of diabetes. Specifically, candesartan-treated rats received this drug via once-daily oral gavage in one of two dosages: viz a high-dose (2 mg/kg/day) or a low dose (0.5 mg/kg/day). The 2 mg/kg/day dose was chosen on the basis that it is an anti-hypertensive dose both in rats with perfused Ang II-induced hypertension and also in the spontaneously hypertensive rat (SHR) (Nishikawa et al., 1994, Blood Press, Suppl 5: 7-14). The low-dose ([…]) was included to investigate whether a sub-therapeutic dose (in terms of anti-hypertensive activity) of candesartan was efficacious for the treatment of PDN. Once initiated, oral once-daily candesartan was administered every day for 24 wks.
Tactile allodynia, the defining symptom of PDN, manifests as a hypersensitive response to non-noxious stimuli such as touch or light pressure, and was quantified using Von Frey filaments (VFFs). […] However, indirect methods have a questionable correlation with symptomatic severity (Malik et al., 1998, supra; Malik et al., 2001, supra). Therefore direct quantification of symptom severity using VFF assessment was used to obtain clinically relevant end points.
For each antinociceptive testing session, rats were placed in wire mesh metabolic cages (20 cm×20 cm×20 cm) and allowed to acclimatise to the test environment for approximately 10-15 min prior to the commencement of experiments. Calibrated VFFs, delivering a force in the range 2-20 g, were then applied to the plantar surface of the hind-paw to determine the paw withdrawal thresholds defined as the minimum force necessary to elicit a brisk foot withdrawal reflex. Commencing with the VFF delivering the lowest mechanical force, the filament was applied to the plantar surface of the footpad until buckling of the filament was observed. Absence of a response after approximately 3 s prompted application of the next VFF of increasing force to the footpad.
The onset and progression of the development of tactile allodynia in all STZ-diabetic rats were quantified by once weekly VFF paw withdrawal testing. Specifically for each rat, three separate assessments of paw withdrawal thresholds were undertaken, each approximately 5 min apart.

[8] = Body weight, metabolic signs and general health of STZ-diabetic rats; type: in vivo, rat; conditions: 24 wks post-STZ rats, cessation of chronic candesartan 2.0 mg/kg/day
Source text: Induction of STZ-diabetes produced an initial ≈5-10% reduction in (mean±SEM) body weight from 233 (±1.99) g pre-STZ administration to 218 (±3.28) g at 4 wks post-STZ, followed by a gradual return to the pre-study weight over the ensuing 6-mth study period (FIG. 1).
One rat died 5 wks after the cessation of candesartan therapy.

[9] = oral candesartan 0.5 mg/kg/day, by 22 wks post-STZ
[10] = oral candesartan 2 mg/kg/day once daily, 24 wk post-STZ study period, relative to non-diabetic control rats

CN1CC[C@]23c4c5ccc(O)c4O[C@H]2[C@@H](O)C=C[C@H]3[C@H]1C5 [morphine]
ED50 (non-diabetic rats [1]; read-out: ED50 of s.c. morphine, non-diabetic rats on high-dose oral candesartan 2.0 mg/kg/day): 2.3 ± 0.3 mg/kg | ED50 (non-diabetic rats [1]; sc, read-out: mean (±SEM) ED50 of s.c. morphine, control untreated non-diabetic rats): 2.9 mg/kg | time to achieve the peak antinociceptive effect (non-diabetic rats [1]; morphine 2.4 mg/kg s.c., control non-diabetic rats): 45 min | ED50 of s.c. morphine (single bolus dose) (non-diabetic rats [2]): ~2.4 mg/kg | ED50 (STZ-diabetic rats [3]; 504 h): 2.5 mg/kg | ED50 (STZ-diabetic rats [3]; 1512 h): 2.3 mg/kg | ED50 (STZ-diabetic rats [3]; 2016 h): 2.1 mg/kg | ED50 (STZ-diabetic rats [3]; 4032 h): 2.4 mg/kg | antinociceptive response evoked by morphine (STZ-diabetic rats [3]; control STZ-diabetic rats of the present studies, 12 wks post-STZ and beyond): marked decrease | time to achieve the peak antinociceptive effect (STZ-diabetic rats [3]; morphine 2.4 mg/kg s.c., STZ-diabetic rats 24 wks post-STZ, oral candesartan 2.0 mg/kg/day): 60 min | timing of the peak antinociceptive effect (STZ-diabetic rats [3]; 3 wks post-STZ): approximately 45 min | timing of the peak antinociceptive effect (STZ-diabetic rats [3]; 9 wks post-STZ): 60 min | time to reach peak levels of antinociception (STZ-diabetic rats [3]; 3 wks post-STZ): 45 min | time to reach peak levels of antinociception (STZ-diabetic rats [3]; beyond 12 wks post-STZ): 60 min | antinociceptive efficacy (STZ-diabetic rats [4]; s.c. morphine, control STZ-diabetic rats by 12 wks post-STZ (Smith et al., 2001)): completely abolished | ED50 morphine dose (STZ-diabetic rats [4]; s.c., STZ-diabetic rats at 3 and 9 wks post-STZ, previously determined by Smith et al. (2001)): 6.1 mg/kg

CCc1cc2c(c(OCc3ccc(-c4ccccc4-c4nnn[nH]4)cc3)c1)CCCC2 [ZD 8731]
Nerve blood flow (NBF) deficits (STZ-diabetic rats [5]): significant improvements | Reduction in nerve conduction velocity (NCV) (STZ-diabetic rats [5]): completely reverses

candesartan
Effect on morphine's antinociceptive effects (s.c. morphine 6.1 mg/kg) (STZ-diabetic rats [6]): preserved morphine's antinociceptive effects; also recorded: morphine sensitivity was preserved | Mean (±SEM) paw withdrawal threshold (STZ-diabetic rats [7]; 24 wks post-STZ on oral candesartan 2.0 mg/kg/day, immediately prior to cessation): 11.9 (±0.2) g | Development of tactile allodynia (Von Frey filaments) (STZ-diabetic rats [7]; oral candesartan 0.5 mg/kg/day once daily for 24 wks from STZ administration): only delayed but did not prevent the development of tactile allodynia | Paw withdrawal latencies versus rats given high-dose candesartan (STZ-diabetic rats [7]; [9]): significantly lower | Paw withdrawal thresholds versus untreated STZ-diabetic control rats (STZ-diabetic rats [7]; [9]): not significantly different | Development of tactile allodynia (Von Frey filaments) (STZ-diabetic rats [7]; oral candesartan 2.0 mg/kg/day once daily for 24 wks from STZ administration): completely attenuated the development of tactile allodynia | Mean paw withdrawal threshold versus non-diabetic control rodents (STZ-diabetic rats [7]; oral candesartan 2.0 mg/kg/day, 24 wks post-STZ): not significantly different | Paw withdrawal thresholds after re-initiation of treatment (STZ-diabetic rats [7]; re-initiation of oral candesartan 2.0 mg/kg/day for six wks after six wks cessation): restored the paw withdrawal thresholds | Mean (±SEM) paw withdrawal threshold (STZ-diabetic rats [7]; six wks after cessation of chronic oral candesartan 2.0 mg/kg/day): 6.0 (±0.3) g | Mean (±SEM) paw withdrawal threshold (STZ-diabetic rats [7]; within two wks of re-initiation of oral candesartan 2.0 mg/kg/day): 11.3 ± 0.1 g | Effect on loss of morphine potency (STZ-diabetic rats [3]; oral candesartan 0.5 mg/kg/day once daily, relative to control untreated STZ-diabetic rats): attenuated the loss of morphine potency | Effect on temporal loss of morphine potency and efficacy (STZ-diabetic rats [3]; [10]): completely prevented the temporal loss of morphine potency and efficacy | Effect on temporal loss of oxycodone potency and efficacy (STZ-diabetic rats [3]; [10]): completely prevented the temporal loss of oxycodone potency and efficacy | Physical appearance and health after cessation of treatment [8]: apparent general decline in the physical appearance and health
